# According to ChEMBL document CHEMBL4138123, “Design, synthesis and biological evaluation of novel pyrazolochalcones as potential modulators of PI3K/Akt/mTOR pathway and inducers of apoptosis in breast cancer cells” (Eur J Med Chem, 2017):
# Experiments:
# Assay type in all cases: functional
# [1] = tested on: CCRF-CEM; test: Cytotoxicity against human CCRF-CEM cells assessed as growth inhibition after 48 hrs by sulforhodamine B assay
# [2] = tested on: COLO 205; test: Cytotoxicity against human COLO205 cells assessed as growth inhibition after 48 hrs by sulforhodamine B assay; details: COLO 205, 48 h
# [3] = tested on: LOX IMVI; test: Cytotoxicity against human LOXIMVI cells assessed as growth inhibition after 48 hrs by sulforhodamine B assay
# [4] = tested on: M14; test: Cytotoxicity against human M14 cells assessed as growth inhibition after 48 hrs by sulforhodamine B assay; details: M14, 48 h
# [5] = tested on: MDA-MB-435; test: Cytotoxicity against human MDA-MB-435 cells assessed as growth inhibition after 48 hrs by sulforhodamine B assay; details: MDA-MB-435, 48 h
# [6] = tested on: OVCAR-3; test: Cytotoxicity against human OVCAR3 cells assessed as growth inhibition after 48 hrs by sulforhodamine B assay; details: OVCAR-3, 48 h
# [7] = tested on: PC-3; test: Cytotoxicity against human PC3 cells assessed as growth inhibition after 48 hrs by sulforhodamine B assay; details: PC-3, 48 h
# [8] = tested on: DU-145; test: Cytotoxicity against human DU145 cells assessed as growth inhibition after 48 hrs by sulforhodamine B assay; details: DU-145, 48 h; for CC50: read-out: LC50 (the source's name)
# [9] = tested on: SK-MEL-28; test: Cytotoxicity against human SK-MEL-28 cells assessed as cell growth at 0.01 uM after 48 hrs by sulforhodamine B assay relative to control; details: SK-MEL-28, 48 h, read-out: Activity
# [10] = tested on: KM12; test: Cytotoxicity against human KM12 cells assessed as cell growth at 0.01 uM after 48 hrs by sulforhodamine B assay relative to control; details: KM12, 48 h, read-out: Activity
# [11] = tested on: HT-29; test: Cytotoxicity against human HT-29 cells assessed as cell growth at 0.01 uM after 48 hrs by sulforhodamine B assay relative to control; details: HT-29, 48 h, read-out: Activity
# [12] = tested on: HCT-15; test: Cytotoxicity against human HCT15 cells assessed as cell growth at 0.01 uM after 48 hrs by sulforhodamine B assay relative to control; details: HCT-15, 48 h, read-out: Activity
# [13] = tested on: HCC 2998; test: Cytotoxicity against human HCC2998 cells assessed as cell growth at 0.01 uM after 48 hrs by sulforhodamine B assay relative to control; details: HCC 2998, 48 h, read-out: Activity
# [14] = tested on: TK-10; test: Cytotoxicity against human TK10 cells assessed as cell growth at 0.01 uM after 48 hrs by sulforhodamine B assay relative to control; details: TK-10, 48 h, read-out: Activity
# [15] = tested on: Hs-578T; test: Cytotoxicity against human Hs 578T cells assessed as cell growth at 0.01 uM after 48 hrs by sulforhodamine B assay relative to control; details: read-out: Activity
# [16] = tested on: MDA-MB-468; test: Cytotoxicity against human MDA-MB-468 cells assessed as cell growth at 0.01 uM after 48 hrs by sulforhodamine B assay relative to control; details: MDA-MB-468, 48 h, read-out: Activity
# [17] = tested on: SR; test: Cytotoxicity against human SR cells assessed as cell growth at 0.1 uM after 48 hrs by sulforhodamine B assay relative to control; details: read-out: Activity
# [18] = tested on: COLO 205; test: Cytotoxicity against human COLO205 cells assessed as cell growth at 0.1 uM after 48 hrs by sulforhodamine B assay relative to control; details: COLO 205, 48 h, read-out: Activity
# [19] = tested on: HCC 2998; test: Cytotoxicity against human HCC2998 cells assessed as cell growth at 0.1 uM after 48 hrs by sulforhodamine B assay relative to control; details: HCC 2998, 48 h, read-out: Activity
# [20] = tested on: UACC-257; test: Cytotoxicity against human UACC257 cells assessed as cell growth at 0.1 uM after 48 hrs by sulforhodamine B assay relative to control; details: UACC-257, 48 h, read-out: Activity
# [21] = tested on: SK-OV-3; test: Cytotoxicity against human SKOV3 cells assessed as cell growth at 0.1 uM after 48 hrs by sulforhodamine B assay relative to control; details: SK-OV-3, 48 h, read-out: Activity
# [22] = tested on: SN12C; test: Cytotoxicity against human SN12C cells assessed as cell growth at 0.1 uM after 48 hrs by sulforhodamine B assay relative to control; details: read-out: Activity
# [23] = tested on: UO-31; test: Cytotoxicity against human UO31 cells assessed as cell growth at 0.1 uM after 48 hrs by sulforhodamine B assay relative to control; details: UO-31, 48 h, read-out: Activity
# [24] = tested on: HOP-62; test: Cytotoxicity against human HOP62 cells assessed as cell growth at 1 uM after 48 hrs by sulforhodamine B assay relative to control; details: HOP-62, 48 h, read-out: Activity
# [25] = tested on: KM12; test: Cytotoxicity against human KM12 cells assessed as cell growth at 1 uM after 48 hrs by sulforhodamine B assay relative to control; details: KM12, 48 h, read-out: Activity
# [26] = tested on: Hs-578T; test: Cytotoxicity against human Hs 578T cells assessed as cell growth at 1 uM after 48 hrs by sulforhodamine B assay relative to control; details: read-out: Activity
# [27] = tested on: COLO 205; test: Cytotoxicity against human COLO205 cells assessed as cell growth at 10 uM after 48 hrs by sulforhodamine B assay relative to control; details: COLO 205, 48 h, read-out: Activity
# [28] = tested on: HCC 2998; test: Cytotoxicity against human HCC2998 cells assessed as cell growth at 10 uM after 48 hrs by sulforhodamine B assay relative to control; details: HCC 2998, 48 h, read-out: Activity
# [29] = tested on: HCT-116; test: Cytotoxicity against human HCT116 cells assessed as cell growth at 10 uM after 48 hrs by sulforhodamine B assay relative to control; details: HCT-116, 48 h, read-out: Activity
# [30] = tested on: HCT-15; test: Cytotoxicity against human HCT15 cells assessed as cell growth at 10 uM after 48 hrs by sulforhodamine B assay relative to control; details: HCT-15, 48 h, read-out: Activity
# [31] = tested on: SNB-19; test: Cytotoxicity against human SNB19 cells assessed as cell growth at 10 uM after 48 hrs by sulforhodamine B assay relative to control; details: SNB-19, 48 h, read-out: Activity
# [32] = tested on: OVCAR-5; test: Cytotoxicity against human OVCAR5 cells assessed as cell growth at 10 uM after 48 hrs by sulforhodamine B assay relative to control; details: OVCAR-5, 48 h, read-out: Activity
# [33] = tested on: OVCAR-8; test: Cytotoxicity against human OVCAR8 cells assessed as cell growth at 10 uM after 48 hrs by sulforhodamine B assay relative to control; details: OVCAR-8, 48 h, read-out: Activity
# [34] = tested on: MDA-MB-231; test: Cytotoxicity against human MDA-MB-231 cells assessed as cell growth at 10 uM after 48 hrs by sulforhodamine B assay relative to control; details: MDA-MB-231, 48 h, read-out: Activity
# [35] = tested on: A498; test: Cytotoxicity against human A498 cells assessed as cell growth at 100 uM after 48 hrs by sulforhodamine B assay relative to control; details: A498, 48 h, read-out: Activity
smiles,measurement,setting,value
COc1ccc(-c2cc(/C=C/C(=O)c3cc(OC)c(OC)c(OC)c3)[nH]n2)cc1OC,GI50,[1],340 nM
same,LC50 (concentration killing 50% of cells),[1],> 100 µM
same,TGI,[1],3.13 µM
same,GI50,[2],1750 nM
same,LC50,[2],7.28 µM
same,TGI,[2],3.57 µM
same,GI50,[3],1460 nM
same,LC50,[3],5.7 µM
same,TGI,[3],2.88 µM
same,GI50,[4],1800 nM
same,LC50 (concentration killing 50% of cells),[4],7.54 µM
same,TGI,[4],3.69 µM
same,GI50,[5],1780 nM
same,LC50,[5],9.2 µM
same,TGI,[5],4.05 µM
same,GI50,[6],1590 nM
same,LC50,[6],6.23 µM
same,TGI,[6],3.15 µM
same,GI50,[7],1990 nM
same,LC50,[7],48.2 µM
same,TGI,[7],10.3 µM
same,GI50,[8],1830 nM
same,TGI,[8],4.12 µM
same,CC50,[8],9.28 µM
same,growth at 0.01 µM,[9],95%
same,growth at 0.01 µM,[10],99%
same,growth at 0.01 µM,[11],101%
same,growth at 0.01 µM,[12],99%
same,growth at 0.01 µM,[13],95%
same,growth at 0.01 µM,[14],93%
same,growth at 0.01 µM,[15],95%
same,growth at 0.01 µM,[16],98%
same,growth at 0.1 µM,[17],73%
same,growth at 0.1 µM,[18],89%
same,growth at 0.1 µM,[19],100%
same,growth at 0.1 µM,[20],97%
same,growth at 0.1 µM,[21],87%
same,growth at 0.1 µM,[22],99%
same,growth at 0.1 µM,[23],82%
same,growth at 1 µM,[24],71%
same,growth at 1 µM,[25],45%
same,growth at 1 µM,[26],86%
same,growth at 10 µM,[27],-72%
same,growth at 10 µM,[28],-93%
same,growth at 10 µM,[29],-81%
same,growth at 10 µM,[30],-41%
same,growth at 10 µM,[31],-29%
same,growth at 10 µM,[32],-47%
same,growth at 10 µM,[33],6%
same,growth at 10 µM,[34],11%
same,growth at 100 µM,[35],-91%
COc1cc(-c2cc(/C=C/C(=O)c3ccc4c(c3)OCO4)[nH]n2)cc(OC)c1OC,LC50 (concentration killing 50% of cells),[1],> 100 µM
same,TGI,[1],5.95 µM
same,LC50,[2],7.92 µM
same,TGI,[2],3.85 µM
same,LC50,[3],7.83 µM
same,TGI,[3],3.78 µM
same,LC50 (concentration killing 50% of cells),[4],> 100 µM
same,TGI,[4],> 100 µM
same,LC50,[5],> 100 µM
same,LC50,[6],> 100 µM
same,TGI,[6],12.3 µM
same,LC50,[7],> 100 µM
same,TGI,[7],13.7 µM
same,TGI,[8],9.56 µM
same,CC50,[8],> 100 µM
same,growth at 0.01 µM,[9],100%
same,growth at 0.01 µM,[10],96%
same,growth at 0.01 µM,[11],99%
same,growth at 0.01 µM,[12],95%
same,growth at 0.01 µM,[13],104%
same,growth at 0.01 µM,[14],89%
same,growth at 0.01 µM,[15],93%
same,growth at 0.01 µM,[16],90%
same,growth at 0.1 µM,[17],101%
same,growth at 0.1 µM,[18],101%
same,growth at 0.1 µM,[19],102%
same,growth at 0.1 µM,[20],91%
same,growth at 0.1 µM,[21],103%
same,growth at 0.1 µM,[22],96%
same,growth at 0.1 µM,[23],83%
same,growth at 1 µM,[24],95%
same,growth at 1 µM,[25],89%
same,growth at 1 µM,[26],94%
same,growth at 10 µM,[27],-66%
same,growth at 10 µM,[28],-87%
same,growth at 10 µM,[29],-60%
same,growth at 10 µM,[30],-13%
same,growth at 10 µM,[31],30%
same,growth at 10 µM,[32],16%
same,growth at 10 µM,[33],2%
same,growth at 10 µM,[34],20%
same,growth at 100 µM,[35],-38%
